Measured values published in article PMC5004205, “Spiro[pyrrolidine-3, 3´-oxindole] as potent anti-breast cancer compounds: Their design, synthesis, biological evaluation and cellular target identification” (Scientific Reports, 2016).
Values after ≈ are worked out from the molar mass of the structure shown. Values joined by “and” are separate entries in the source; they are usually repeats but may differ in a detail not shown here. Equal values may be shown once. “Also recorded” adds a separate entry of the source.

Columns and labels:
[1] = system: MCF-7 cells; settings: cited from earlier work
[2] = system: COS-7 cells; assay: MTT colorimetric cell viability assay, COS-7; assay type: cell-based; settings: for inhibition at 50 µM: Chlorocebus aethiops, COS-7, MTT, triplicates, read-out: Percentage inhibition COS-7
Method: (§1) The MTT colorimetric viability assay was performed to evaluate the anticancer effect of compounds. 30,000 cells/100 μl of media were seeded per well and allowed to stretch and adhere overnight at 37 °C. Following day media was removed and 100 μl fresh media was added to the grown cells. Adhered cells were then treated with the compounds 5a-m dissolved in DMSO in triplicates at a standard concentration of 50 μM for 48 hours. There was one positive and one negative control along with 13 compounds. The results were measured all in triplicate in 45 wells of 96 well plate at each time point. Cytotoxic effect was evaluated using ability of live cells to cleave MTT ((3-[4, 5- dimethylthiazol-2-yl]-2, 5-diphenyl tetrazolium bromide)) (Sigma-Aldrich, St Louis, MO, USA), into formazan crystals. Post 48 hours of treatment, 10 μl of MTT (5 mg/ml in PBS) was added to the cells and incubated for 4 hours in dark at 37 °C. The violet colored crystals formed were then dissolved in 100 μl DMSO solvent (Dimethyl Sulfoxide, Sigma-Aldrich, St. Louis, MO, USA). The colorimetric assay was read by a MultiMode Plate Reader (Bio-Rad) at 595 nm. Percentage of Inhibition of drug was calculated by following formula: […]

[3] = system: MCF-7 breast cancer cells; assay: MTT colorimetric cell viability assay, MCF-7; assay type: cell-based; settings: for inhibition at 50 µM / EC50: Homo sapiens; for inhibition at 50 µM: MCF7, 48 hours, MTT, triplicates, read-out: Percentage inhibition MCF-7; for CTRL-TST/CTRL*100 (inhibition) MCF-7: EC50 plate; for EC50: MCF7, MTT, mean of three experiments
Method: MCF-7 cells were maintained as monolayer in 25 cm^2 culture flasks (T-25) at 37 °C in DMEM medium (GIBCO, St. Louis, USA) supplemented with high glucose, L-glutamine, pyridoxine hydrochloride, 110 mg/L sodium pyruvate, 3.7 g/L NaHCO3 and antibiotics (Penicillin-10,000 units/mL, Streptomycin −10,000 μg/mL, GIBCO, USA). Growth medium (pH 7.4) was prepared by adding 5% heat inactivated FBS (Fetal Bovine Serum, GIBCO, USA) and stored at 4 °C. The medium was changed 10–18 hrs prior to experiment, and cells were confluent at the time of experimentation. Cells were dislodged from flasks by gentle trypsinization containing 0.25% Trypsin. MCF-7 cells were regularly sub-cultured thrice a week in a seeding density of 40,000–50,000 cells/cm^2area. Cell confluency = 70%
The MTT colorimetric viability assay was performed to evaluate the anticancer effect of compounds. 30,000 cells/100 μl of media were seeded per well and allowed to stretch and adhere overnight at 37 °C. Following day media was removed and 100 μl fresh media was added to the grown cells. […] There was one positive and one negative control along with 13 compounds. The results were measured all in triplicate in 45 wells of 96 well plate at each time point. Cytotoxic effect was evaluated using ability of live cells to cleave MTT ((3-[4, 5- dimethylthiazol-2-yl]-2, 5-diphenyl tetrazolium bromide)) (Sigma-Aldrich, St Louis, MO, USA), into formazan crystals. Post 48 hours of treatment, 10 μl of MTT (5 mg/ml in PBS) was added to the cells and incubated for 4 hours in dark at 37 °C. The violet colored crystals formed were then dissolved in 100 μl DMSO solvent (Dimethyl Sulfoxide, Sigma-Aldrich, St. Louis, MO, USA). The colorimetric assay was read by a MultiMode Plate Reader (Bio-Rad) at 595 nm. Percentage of Inhibition of drug was calculated by following formula:
O.D1 O.D2 O.D3 AVG CTRL-TST CTRL-TST/CTRL*100 stdev

[4] = system: MCF10A cells; assay: MTT cytotoxicity assay, MCF10A; assay type: cell-based; settings: for CTRL-TST/CTRL*100 MCF10A cytotoxicity / Percentage inhibition MCF10A: 48 hours; for CTRL-TST/CTRL*100 MCF10A cytotoxicity: 595 nm; for Percentage inhibition MCF10A: MTT
Method: MCF10A was obtained from American Tissue Type Culture Collection (ATCC, Bethesda, MD). All cells were grown in a humidified atmosphere at 37 °C, with 5% CO2 in air.
as §1
Cytotoxicity assay with MCF 10A
Experiment :MCF10A cytotoxicity assay 48 hours
Raw Data{Wavelength:595.0}
O.D1 O.D2 O.D3 AVG CTRL-TEST CTRL-TST/CTRL*100
(1 picture or pasted object on this page, not shown here)

[5] = system: MCF-7 cells; assay: Cell migration (scratch) assay; assay type: cell-based; settings: 24 hours, compared to untreated cells
Method: MCF-7 cells were grown to confluence in six-well tissue culture plastic dishes to a density of ∼0.2 million cells/well. After 24 hrs of seeding, cells were treated with chemical compounds. The medium was removed and the cells were scratched by 200 μL pipette micro tip through the center of the plate. The cultures were washed to remove debris and re-cultured with DMEM containing 10% FBS for cell migration. The cells were imaged at 24 hrs and the migrated distance was measured. Migration rate was calculated by counting five to seven fields per image and the results presented as the average of three independent experiments performed over multiple days.

[6] = system: MCF-7 cells; assay: Annexin V/propidium iodide FACS assay; assay type: cell-based
Method: The assay is based on the ability of the protein annexin V to bind to phosphatidylserine (PS) exposed on the outer membrane leaflet in apoptotic cells (PS also appears on the necrotic cell surface). The annexin V assay was performed following the manufacturer’s instructions (Annexin V-FITC kit,Alexa Fluor). Briefly, the cells were washed with PBS and suspended in pre-diluted binding buffer. The cell density was adjusted to 2 million and 195 μl of cell suspension were mixed with 5 μl Annexin V-FITC and incubated for 10 min in the dark at room temperature. The cells were washed with binding buffer, re-suspended in 195 μl binding buffer, counterstained with 10 μl of the 20 μg/ml propidium iodide stock (final concentration 1 μg/ml) and the data were acquired by BD FACS diva 7.0 at 6 h, 12 h and 24 h.

[7] = system: MCF-7 cells; assay: DNA fragmentation (DNA-ladder) assay; assay type: cell-based; settings: MCF-7, gel electrophoresis
Method: The DMSO (dimethyl sulphoxide)–SDS (sodium dodecyl sulphate)–TE (Tris-EDTA) method: 2 million MCF-7cells were taken as starting material for DNA isolation. Cells were dislodged with Trypsin-EDTA and washed with 1 X PBS. DMSO was added directly to the cell pellet (100 μl) and mixed well by pipetting. TE buffer (pH 7.4) with 2% SDS was added into the mixture with same volume, followed by pipetting. The solution was centrifuged at 3000 rpm at 4 °C and 30 μL of the supernatant was loaded on agarose gel to check the effect of drugs on DNA molecule.

[8] = system: PKCα kinase; design: method as in Shantani UPT Application Notes; settings: at 1μM; ref Shantani UPT Application Notes; cited from earlier work

Q: With CS[C@@]1(C)C(=O)N(C)[C@@](Cc2c[nH]c3ccccc23)(SC)C(=O)N1C [Chaetocochins G] as the compound, how does the “IC50 in MCF-7” value [1] read?
A: The value was 16.9 µg/mL (≈ 44.8 µM).

Q: What about the “Mode of cell death” value [1] of the same compound?
A: The value was “Induces Apoptosis”.

Q: Which results are given for Cc1ccc(C2NCCC23C(=O)Nc2ccccc23)cc1 (centres unmarked) [Compound 5a]?
A: inhibition at 50 µM [2]: 11.73 ± 0.09%; inhibition at 50 µM [3]: 35.06 ± 0.09%

Q: Which inhibition at 50 µM [2] does the source give for O=C1Nc2ccccc2C12CCNC2c1cccc(C(F)(F)F)c1 (centres unmarked) [Compound 5b] here?
A: The inhibition at 50 µM was 20.73 ± 0.11%.

Q: And the inhibition at 50 µM [3]?
A: The inhibition at 50 µM was 33.1 ± 0.12%.

Q: What does the source list for Cc1cc(C)cc(C2NCCC23C(=O)Nc2ccccc23)c1 (centres unmarked) [Compound 5c]?
A: inhibition at 50 µM [2]: 28.8 ± 0.13%; inhibition at 50 µM [3]: 34.46 ± 0.11%

Q: For O=C1Nc2ccccc2C12CCNC2c1c(F)cccc1F (centres unmarked) [Compound 5d], which inhibition at 50 µM [2] is on record?
A: The inhibition at 50 µM was 9.22 ± 0.12%.

Q: What about the inhibition at 50 µM [3] of the same compound?
A: The inhibition at 50 µM was 44.25 ± 0.17%.

Q: What does the source list for O=C1Nc2ccccc2C12CCNC2c1cccc(F)c1 (centres unmarked) [Compound 5e]?
A: Effect on proliferation of healthy MCF10A cells [4]: did not inhibit the proliferation; also recorded: little or no effect; CTRL-TST/CTRL*100 MCF10A cytotoxicity [4]: 4.48; Percentage inhibition MCF10A [4]: 4.48%; Inhibition of proliferation of healthy COS-7 cells [2]: did not inhibit the proliferation; inhibition at 50 µM [2]: 3.56 ± 0.19%; CTRL-TST/CTRL*100 (inhibition) MCF-7 ([3]; concentration row 10): -4.013; CTRL-TST/CTRL*100 (inhibition) MCF-7 ([3]; concentration row 20): 8.388; CTRL-TST/CTRL*100 (inhibition) MCF-7 ([3]; concentration row 30): 23.78; CTRL-TST/CTRL*100 (inhibition) MCF-7 ([3]; concentration row 40): 31.55; CTRL-TST/CTRL*100 (inhibition) MCF-7 ([3]; concentration row 50): 52.5; EC50 [3]: 6 µM; inhibition at 50 µM [3]: 54.67 ± 0.08%

Q: With COc1cccc(C2NCCC23C(=O)Nc2ccccc23)c1 (centres unmarked) [Compound 5f] as the compound, how does the inhibition at 50 µM [2] read?
A: Its inhibition at 50 µM is 34.87 ± 0.17%.

Q: And the inhibition at 50 µM [3]?
A: The inhibition at 50 µM was 38.48 ± 0.18%.

Q: For COc1ccc(C2NCCC23C(=O)Nc2ccccc23)cc1OC (centres unmarked) [Compound 5g], which inhibition at 50 µM [2] is on record?
A: Its inhibition at 50 µM is 2.39 ± 0.23%.

Q: And the inhibition at 50 µM [3]?
A: Its inhibition at 50 µM is 25.29 ± 0.24%.

Q: For COc1ccc(C2NCCC23C(=O)Nc2ccccc23)cc1 (centres unmarked) [Compound 5h], which inhibition at 50 µM [2] is on record?
A: Its inhibition at 50 µM is 25.2 ± 0.06%.

Q: What about the inhibition at 50 µM [3] of the same compound?
A: Its inhibition at 50 µM is 50.62 ± 0.24%.

Q: Which “Effect on proliferation of healthy MCF10A cells” value [4] does the source give for COc1cc(OC)c(C2NCCC23C(=O)Nc2ccccc23)cc1OC (centres unmarked) [Compound 5i] here?
A: The value was “did not inhibit the proliferation; also recorded: little or no effect”.

Q: And the “CTRL-TST/CTRL*100 MCF10A cytotoxicity” value [4]?
A: Its value is 0.8.

Q: What about the “Percentage inhibition MCF10A” value [4] of the same compound?
A: Its value is 0.8%.

Q: What about the “Inhibition of proliferation of healthy COS-7 cells” value [2] of the same compound?
A: Its value is “did not inhibit the proliferation”.

Q: What about the inhibition at 50 µM [2] of the same compound?
A: The inhibition at 50 µM was 15.6 ± 0.09%.

Q: What about the “Inhibition of cell migration of MCF-7 cells” value [5] of the same compound?
A: Its value is “inhibit cell migration”.

Q: And the “CTRL-TST/CTRL*100 (inhibition) MCF-7” value ([3]; concentration row 10)?
A: The value was 7.139.

Q: And the “CTRL-TST/CTRL*100 (inhibition) MCF-7” value ([3]; concentration row 20)?
A: Its value is 20.22.

Q: And the “CTRL-TST/CTRL*100 (inhibition) MCF-7” value ([3]; concentration row 30)?
A: Its value is 43.4.

Q: And the “CTRL-TST/CTRL*100 (inhibition) MCF-7” value ([3]; concentration row 40)?
A: The value was 50.54.

Q: What about the “CTRL-TST/CTRL*100 (inhibition) MCF-7” value ([3]; concentration row 50) of the same compound?
A: Its value is 66.16.

Q: And the EC50 [3]?
A: The EC50 was 4.01 µM.

Q: And the inhibition at 50 µM [3]?
A: Its inhibition at 50 µM is 53.66 ± 0.06%.

Q: What about the “Mode of cell death by Annexin-PI FACS” value [6] of the same compound?
A: The value was “necrosis was also confirmed”.

Q: And the “DNA fragmentation pattern / mode of cell death” value [7]?
A: The value was “smearing of DNA fragments”.

Q: What does the source list for COc1ccc(C2NCCC23C(=O)Nc2ccccc23)c(F)c1 (centres unmarked) [Compound 5j]?
A: inhibition at 50 µM [2]: 7.52 ± 0.15%; inhibition at 50 µM [3]: 38.72 ± 0.15%

Q: Which results are given for COc1ccc(C2NCCC23C(=O)Nc2ccccc23)cc1C (centres unmarked) [Compound 5k]?
A: inhibition at 50 µM [2]: 7.14 ± 0.19%; inhibition at 50 µM [3]: 44.4 ± 0.09%

Q: What does the source list for O=C1Nc2ccccc2C12CCNC2c1cc(C(F)(F)F)ccc1C(F)(F)F (centres unmarked) [Compound 5m]?
A: inhibition at 50 µM [2]: -0.51 ± 0.29%; inhibition at 50 µM [3]: 31.81 ± 0.11%

Q: For COc1cc([C@@H]2c3cc4c(cc3[C@@H](O[C@@H]3O[C@@H]5CO[C@@H](C)O[C@H]5[C@H](O)[C@H]3O)[C@H]3COC(=O)[C@H]23)OCO4)cc(OC)c1O [Etoposide, reference compound], which inhibition at 50 µM [2] is on record?
A: Its inhibition at 50 µM is 77.65 ± 0.1%.

Q: And the inhibition at 50 µM [3]?
A: The inhibition at 50 µM was 71.95 ± 0.11%.

Q: What about the “CTRL-TST/CTRL*100 (inhibition) MCF-7, positive control” value ([3]; eto control row of the EC50 plates of 5l, 5e, 5i, concentration not given, listed as eto) of the same compound?
A: Its value is 70.96 and 73.49 and 73.1582.

Q: For Bisindolylmaleimide-III [Bis-III], which “Inhibition of PKCα kinase activity” value [8] is on record?
A: The value was 93%.
